Laboratory results as given in US20230257385A1, “SALT AND SOLID FORMS OF TABERNANTHALOG” (priority 2021, published 2023).

Experiments:
[1] = Competitive suspension equilibration monofumarate Form A and Form B (Experiment Reference 16); assay type: physicochemical; conditions: competitive suspension equilibration of Form A and Form B in TBME (5.0 vol), 16-A at 20 °C, 16-B at 40 °C
Experimental: Competitive suspension equilibration (Form A and Form B) (Experiment Reference 16) a. Experimental Procedure Equimolar quantities of Form A (Pattern #6a, 25.4 mg, 1 wt, 8-A4; (Experiment Reference 8-Sample Reference A4)) and Form B (Pattern #2a, 25.0 mg, 1 wt, Sample B-A2) were suspended in tBME (250 μl, 5.0 vol). The first experiment was agitated at 20° C., (16-A) (Experiment Reference 16-Sample Reference A), while the other was agitated at 40° C. (16-B) (Experiment Reference 16-Sample Reference B). The suspension was monitored by XRPD analysis.
Competitive suspension equilibration of Form A (8-A4) (Experiment Reference 8-Sample Reference A4) versus Form B (Sample B-A2) was performed at 20° C. […] Summary of competitive suspension equilibration between Form A and Form B (16-A (Experiment Reference 16-Sample Reference A) and 16-B (Experiment Reference 16-Sample Reference B)) is provided in Table 153A.

[2] = Evaporation screen of the monofumarate salt (Experiment Reference 14); assay type: physicochemical; conditions: input Sample Reference 1, Solvent A DMSO, Solvent B: 14-A EtOH; for XRPD crystallinity (wet pellet): 14-B nBuOH (disordered), 14-C water (high background); for XRPD crystallinity (oven dried): 14-B nBuOH, 14-C water
Experimental: Crystallization of the API was examined by changing the composition of the crystallization solvent by evaporation of a volatile diluent. This technique is useful for generating kinetic forms and solvates. Separate portions of the tabernanthalog monofumarate salt (Pattern #1, Sample Reference 1, ca 50 mg, 1.0 wt.) were charged to separate vessels. DMSO (100 μl, 2.0 vol, refer to Table 132) was charged to the relevant vessels and subsequent charges of the appropriate co-solvent (900 μl, 18.0 vol) were made to accomplish dissolution. The vials were covered with an aluminum foil cap and pierced with a single hole, then left to stand at 20° C. After 6 days, gentle nitrogen flux was applied to dryness. The products were analyzed by XRPD and companion analyses, for evidence of alternative crystalline forms.

[3] = SIF buffer solubility panel (FaSSIF, FeSSIF, FaSSGF); assay type: physicochemical; conditions: 37° C., up to 24 h (timepoints t=0, 1 h, 3 h, 6 h, 24 h)
[4] = DVS 0 to 90 to 0% RH (mass equilibrated); assay type: physicochemical
[5] = Stability panel of salts, open vial / double-bagged vial, t=5 d and 10 d; assay type: physicochemical; conditions: input Form A
Text: FIG. 797 depicts the overlay of, from top to bottom, XRPD of Experiment 1-Sample A2 (Form A), Experiment 10-Sample A1 (5 days, open vial Pattern #2), Experiment 10-Sample A2 (10 days, open vial, Pattern #2), Experiment 10-Sample B1 (5 days, double-bagged vial, Form A) and Experiment 10-Sample B2 (10 days, double-bagged vial, Pattern #2).

[6] = Solubility determinations in SIF buffers FaSSIF, FeSSIF, FaSSGF (Example 8, Experiment 5)
Experimental: The temperature was maintained at 37° C. for 24 h. […] The suspensions were sampled at the relevant time points and centrifuged. The centrifuged pellets, obtained at the time points were analysed by XRPD as a wet pellet and dried, for evidence of form change.
The temperature was maintained at 37° C. for 24 h.
The suspension was sampled at the relevant time points and centrifuged. […] The centrifuged pellets, obtained at the time points were analyzed by XRPD as a wet pellet and dried, for evidence of form change.

[7] = Equilibrium humidity evaluation 75% RH/40° C., 10 days (Example 8, Experiment 6); assay type: physicochemical
Experimental: The experimental procedure that accompany this experiment is provided in Section G.ii.
All forms were maintained under constant equilibrium humidity (75% RH). XRPD, DSC, TGA, PLM and ^1H NMR analyses were performed on the absorbents at t=5 d and t=10 d, to confirm their physical fates and to determine the extent of residual solvent exchange or sequestration.
100 mg portions of Tabernanthalog salts ([…]) were placed in the relevant open vials. The powders were finely divided and distributed evenly over the base of the vial, such that equal material coverage across the panel was observed. These samples were then maintained 40° C. under 75% RH. The samples were sub-sampled at intervals of 5 and 10 days and analyzed by ^1H NMR, HPLC, XRPD, DSC, TGA and PLM, for evidence of phase change or chemical degradation.

[8] = Dynamic vapour sorption (DVS) of selected salts (Example 8); assay type: physicochemical; conditions: 0 to 90 to 0% RH, 25° C., dm/dt 0.002%/min
Experimental: DVS: The moisture sorption properties of the feed API were analyzed by DVS Intrinsic instrument (Surface Measurement System). Approximately 20-50 mg of API was weighed on an aluminum pan and loaded into the instrument equilibrated at 25° C. The sample was allowed to equilibrate under dry atmosphere (0% relative humidity) for 60 minutes before increasing the humidity from 0% to 30% at 5% step increment and from 30% to 90% at 10% step increment. A desorption cycle was also applied from 90% to 30% (10% step) and from 30% to 0% (5% decrement). A rate of change in mass per time unit (dm/dt) of 0.002%/min was set as the equilibrium parameter. Kinetic and isotherm graphs were calculated.

[9] = Stability of Tabernanthalog·Sorbate·HemiHFIPA at 75% RH, 20° C. and 40° C.; assay type: physicochemical; conditions: 5 days; for Outcome: input Experiment 3-Sample A2; for HFIPA content after storage / powder pattern after storage: 75% RH, 20° C. and 40° C.; for HFIPA content after storage: 19F NMR; for powder pattern after storage: XRPD
Experimental: Stability of the salt (Table 302) at elevated relative humidity was examined at 20 and 40° C., to determine if the HFIPA solvent can be replaced by water to generate the isomorphic hydrate.
Experimental reference: Experiment 3-Sample B1, Experiment 3-Sample C1 Tabernanthalog·Sorbate·HemiHFIPA (Experiment 3-Sample A2, 28.2 mg, 1 wt) was charged into a wide necked solid sample vial, the uncapped vial was placed inside a larger amber jar containing an aqueous NaCl slurry. The amber jar was sealed and left to stand for 5 days. The specimen analysed by XRPD, ^19F NMR, TGA and DSC after 5 days.

[10] = each timepoint up to 24 h, 37° C.
[11] = listed as Tabernanthalog·Sorbate·hemiHFIPA

COc1ccc2c3c([nH]c2c1)CCN(C)CC3.O=C(O)/C=C/C(=O)O [Pattern 16-A]
XRPD (4 weeks, -A8) ([1]; t = 4 weeks): Form A > Form B | XRPD (48 h, -A2) ([1]; t = 48 h): Form A > Form B | XRPD (108 h, -A3) ([1]; t = 108 h): Form A > Form B | XRPD (192 h, -A4) ([1]; t = 192 h): Form A >> Form B

COc1ccc2c3c([nH]c2c1)CCN(C)CC3.O=C(O)/C=C/C(=O)O [Pattern 14-C]
XRPD crystallinity (wet pellet) [2]: (Pattern #6a)

COc1ccc2c3c([nH]c2c1)CCN(C)CC3 [Pattern #6a (Form A)]
solubility in FaSSGF [3]: soluble | solubility in FaSSIF [3]: soluble | solubility in FeSSIF [3]: soluble | DVS 0 to 90 to 0% RH (dm/dt <0.002%) ([4]; desorption, 0.0% RH): 0.0381% | DVS 0 to 90 to 0% RH (dm/dt <0.002%) ([4]; desorption, 5.0% RH): 0.1179% | DVS 0 to 90 to 0% RH (dm/dt <0.002%) ([4]; desorption, 10.0% RH): 0.1551% | DVS 0 to 90 to 0% RH (dm/dt <0.002%) ([4]; desorption, 15.0% RH): 0.1857% | DVS 0 to 90 to 0% RH (dm/dt <0.002%) ([4]; desorption, 20.0% RH): 0.2126% | DVS 0 to 90 to 0% RH (dm/dt <0.002%) ([4]; desorption, 25.0% RH): 0.2387% | DVS 0 to 90 to 0% RH (dm/dt <0.002%) ([4]; desorption, 30.0% RH): 0.2656% | DVS 0 to 90 to 0% RH (dm/dt <0.002%) ([4]; desorption, 40.0% RH): 0.3210% | DVS 0 to 90 to 0% RH (dm/dt <0.002%) ([4]; desorption, 50.0% RH): 0.3797% | DVS 0 to 90 to 0% RH (dm/dt <0.002%) ([4]; desorption, 60.0% RH): 0.4515% | DVS 0 to 90 to 0% RH (dm/dt <0.002%) ([4]; desorption, 70.0% RH): 0.5442% | DVS 0 to 90 to 0% RH (dm/dt <0.002%) ([4]; desorption, 80.0% RH): 0.6827% | DVS 0 to 90 to 0% RH (dm/dt <0.002%) ([4]; desorption, 90.0% RH): 0.9766% | DVS 0 to 90 to 0% RH (dm/dt <0.002%) ([4]; sorption, 0.0% RH): 0.0004% | DVS 0 to 90 to 0% RH (dm/dt <0.002%) ([4]; sorption, 5.0% RH): 0.0627% | DVS 0 to 90 to 0% RH (dm/dt <0.002%) ([4]; sorption, 10.0% RH): 0.0957% | DVS 0 to 90 to 0% RH (dm/dt <0.002%) ([4]; sorption, 15.0% RH): 0.1397% | DVS 0 to 90 to 0% RH (dm/dt <0.002%) ([4]; sorption, 20.0% RH): 0.1778% | DVS 0 to 90 to 0% RH (dm/dt <0.002%) ([4]; sorption, 25.0% RH): 0.2093% | DVS 0 to 90 to 0% RH (dm/dt <0.002%) ([4]; sorption, 30.0% RH): 0.2401% | DVS 0 to 90 to 0% RH (dm/dt <0.002%) ([4]; sorption, 40.0% RH): 0.3145% | DVS 0 to 90 to 0% RH (dm/dt <0.002%) ([4]; sorption, 50.0% RH): 0.4051% | DVS 0 to 90 to 0% RH (dm/dt <0.002%) ([4]; sorption, 70.0% RH): 0.5451% | DVS 0 to 90 to 0% RH (dm/dt <0.002%) ([4]; sorption, 80.0% RH): 0.6660% | DVS 0 to 90 to 0% RH (dm/dt <0.002%) ([4]; sorption, 90.0% RH): 0.9766%

COc1ccc2c3c([nH]c2c1)CCN(C)CC3.O=C(O)/C=C/C(=O)O [Sample 14-C]
XRPD crystallinity (oven dried) [2]: Pattern 6a

COc1ccc2c3c([nH]c2c1)CCN(C)CC3.O=C(O)/C=C/C(=O)O [Pattern 14-B]
XRPD crystallinity (wet pellet) [2]: (Pattern #23)

COc1ccc2c3c([nH]c2c1)CCN(C)CC3.O=C(O)/C=C/C(=O)O [Sample 14-B]
XRPD crystallinity (oven dried) [2]: Pattern 23

C/C=C/C=C/C(=O)O.COc1ccc2c3c([nH]c2c1)CCN(C)CC3 [tabernanthalog sorbate salt Form A]
form by XRPD after stability storage ([5]; 5 days, double-bagged vial): Form A | form by XRPD after stability storage ([5]; 5 days, open vial): Pattern #2 | form by XRPD after stability storage ([5]; 10 days, double-bagged vial): Pattern #2

COc1ccc2c3c([nH]c2c1)CCN(C)CC3.O=C(O)c1ccccc1 [tabernanthalog benzoate salt]
solubility in FaSSGF [3]: all dissolved except the tabernanthalog benzoate salt | solubility in FaSSIF [3]: all dissolved except the tabernanthalog benzoate salt | solubility in FeSSIF [3]: all dissolved except the tabernanthalog benzoate salt | behaviour at 30 mg/ml in SIF buffers ([6]; FaSSIF, FeSSIF, FaSSGF, 37° C., 24 h): precipitated in all three SIF buffers | stability of the suspended phase in FaSSIF (XRPD of pellet) [6, 10]: stable and did not disproportionate in FaSSIF | stability of the suspended phase in FeSSIF (XRPD of pellet) [6, 10]: stable and did not disproportionate in FeSSIF | decrease in chemical purity of wet pellets in FaSSIF ([6]; over the time points up to 24 h): ca. 1.22 % area | fate of the suspended phase in FaSSGF (XRPD, 1H NMR) ([6]; up to 24 h, 37° C.): consistent with benzoic acid | change in chemical purity (trended HPLC) ([7]; 75% RH/40° C., after 10 days): did not decrease significantly | water uptake / hydrate formation (TGA, DSC) ([7]; 75% RH/40° C., t=5 d and t=10 d): no significant water uptake | powder diffraction pattern versus input (form stability) ([7]; 75% RH/40° C., t=5 days and t=10 days): consistent with the input | Tabernanthalog RRT = 1.00 (trended HPLC data, chemical purity) ([7]; Benzoate salt, input before humidity exposure): 98.56 | DVS sorption/desorption isotherm [8]: slightly hygroscopic

CC=CC=CC(=O)O.CC=CC=CC(=O)O.COc1ccc2c3c([nH]c2c1)CCN(C)CC3.COc1ccc2c3c([nH]c2c1)CCN(C)CC3.OC(C(F)(F)F)C(F)(F)F [Tabernanthalog•Sorbate•hemiHFIPA]
Outcome ([9]; 75% RH 20° C.): HemiHFIPA | Outcome ([9]; 75% RH 40° C.): HemiHFIPA

COc1ccc2c3c([nH]c2c1)CCN(C)CC3.O=C(O)/C=C/C(=O)O [Sample 14-A]
XRPD crystallinity (oven dried) [2]: Pattern 23

COc1ccc2c3c([nH]c2c1)CCN(C)CC3.O=C(O)/C=C/C(=O)O [Pattern 14-A]
XRPD crystallinity (wet pellet) [2]: (Pattern #23)

C/C=C/C=C/C(=O)O.C/C=C/C=C/C(=O)O.COc1ccc2c3c([nH]c2c1)CCN(C)CC3.COc1ccc2c3c([nH]c2c1)CCN(C)CC3.OC(C(F)(F)F)C(F)(F)F [Tabernanthalog·Sorbate·HemiHFIPA]
HFIPA content after storage [9]: small decrease in HFIPA content | HFIPA content after storage [9, 11]: partial loss of HFIPA | powder pattern after storage [9]: No change in powder pattern observed | powder pattern after storage [9, 11]: No change in the powder pattern was observed
